Counter-ions that a name gives are not always drawn.
Legend:
NHE3 [1] = molecular target: T1, NHE3 (Homo sapiens, UniProt P48764); assay: Cell-based assay of NHE-3 activity (persistent inhibition), human; conditions: human Persistence, 60 min incubation then washout
T1 construct: expressed in transfected cells
T1 sequence (P48764 26-834): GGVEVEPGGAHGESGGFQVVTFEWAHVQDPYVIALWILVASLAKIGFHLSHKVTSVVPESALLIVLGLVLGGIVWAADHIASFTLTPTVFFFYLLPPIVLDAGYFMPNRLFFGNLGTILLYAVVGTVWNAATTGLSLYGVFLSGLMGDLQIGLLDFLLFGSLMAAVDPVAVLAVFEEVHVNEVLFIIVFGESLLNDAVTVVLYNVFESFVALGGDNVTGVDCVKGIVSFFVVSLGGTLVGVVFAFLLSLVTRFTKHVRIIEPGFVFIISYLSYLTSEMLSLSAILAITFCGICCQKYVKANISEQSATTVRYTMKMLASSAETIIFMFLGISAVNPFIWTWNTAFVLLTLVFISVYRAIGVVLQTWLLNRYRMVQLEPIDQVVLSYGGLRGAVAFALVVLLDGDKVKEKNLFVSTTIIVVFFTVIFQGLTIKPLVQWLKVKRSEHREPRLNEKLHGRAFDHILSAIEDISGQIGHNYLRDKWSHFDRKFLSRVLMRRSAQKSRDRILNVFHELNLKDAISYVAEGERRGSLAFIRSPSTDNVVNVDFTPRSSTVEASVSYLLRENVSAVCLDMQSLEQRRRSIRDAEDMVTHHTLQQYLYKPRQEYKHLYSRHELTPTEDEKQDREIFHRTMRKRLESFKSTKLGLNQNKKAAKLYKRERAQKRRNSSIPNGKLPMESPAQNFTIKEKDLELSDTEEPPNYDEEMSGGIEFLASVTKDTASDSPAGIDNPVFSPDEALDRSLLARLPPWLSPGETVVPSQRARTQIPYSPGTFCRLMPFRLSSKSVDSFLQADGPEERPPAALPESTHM
T1 sequence (Q99653 2-195 partner limits assumed): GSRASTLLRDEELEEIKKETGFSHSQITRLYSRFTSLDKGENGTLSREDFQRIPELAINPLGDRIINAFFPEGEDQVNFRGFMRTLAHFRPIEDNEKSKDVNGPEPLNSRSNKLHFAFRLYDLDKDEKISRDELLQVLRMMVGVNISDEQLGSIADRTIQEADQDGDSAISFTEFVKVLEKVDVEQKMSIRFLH
Procedure, shortened: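 Persistent inhibition: compound (0-30 μM, 60 min, RT, NaCl-HEPES pH 7.4) removed before assay. Human NHE3/NHERF2 PS120 cells were then BCECF-loaded during NH4Cl pulse (30 min, 37 °C), acidified in Na+-free buffer, and Na+ added 10 min after washout; antiport measured as initial fluorescence-ratio change per minute.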

NHE3 [2] = molecular target: T1, NHE3; assay: Cell-based assay of NHE-3 activity (pre-incubation inhibition), human; conditions: human Preincubation; for pIC50 / IC50: 0-30 μM test compound
Procedure, shortened: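 Activity read as initial rate of BCECF fluorescence ratio change per minute (ex 439/505, em 538 nm) following NH4Cl prepulse acid loading. Compound (0–30 μM) present during 10 min Na+-free acidification at room temperature; cells were PS120 fibroblasts stably co-expressing human NHE3 and NHERF2.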

SMILES	% inhibition (NHE3 [1])	pIC50 (NHE3 [1])	% inhibition (NHE3 [2])	pIC50 (NHE3 [2])	IC50 (NHE3 [1]) [nM]	IC50 (NHE3 [2]) [nM]
O=C(NCCCCNC(=O)NCCOCCOCCNS(=O)(=O)c1ccc(O[C@H]2c3cc(Cl)cc(Cl)c3C[C@@H]2N2C3CCCC2CCC3)cc1)NCCOCCOCCNS(=O)(=O)c1ccc(O[C@H]2c3cc(Cl)cc(Cl)c3C[C@@H]2N2C3CCCC2CCC3)cc1 [Example 71, 1-[2-(2-[2-[(4-[[(1S,2S)-2-[9-Azabicyclo[3.3.1]nonan-9-yl]-4,6-dichloro-2,3-dihydro-1H-inden-1-yl]oxy]benzene)sulfonamido]ethoxy]ethoxy)ethyl]-3-[4-([[2-(2-[2-[(4-[[(1S,2S)-2-[9-azabicyclo[3.3.1]nonan-9-yl]-4,6-dichloro-2,3-dihydro-1H-inden-1-yl]oxy]benzene)sulfonamido]ethoxy]ethoxy)ethyl]carbamoyl]amino)butyl]urea]	B (40-70%)	A (NHE3 pIC50 < 6)	B (40-70%)	A (NHE3 pIC50 < 6)	–	–
CN1CCN([C@H]2Cc3c(Cl)cc(Cl)cc3[C@@H]2Oc2ccc(S(=O)(=O)NCCOCCOCCNC(=O)NCCCCNC(=O)NCCOCCOCCNS(=O)(=O)c3ccc(O[C@H]4c5cc(Cl)cc(Cl)c5C[C@@H]4N4CCN(C)CC4)cc3)cc2)CC1 [Example 72, 3-[2-(2-[2-[(4-[[(1S,2S)-4,6-Dichloro-2-(4-methylpiperazin-1-yl)-2,3-dihydro-1H-inden-1-yl]oxy]benzene)sulfonamido]ethoxy]ethoxy)ethyl]-1-[4-([[2-(2-[2-[(4-[[(1S,2S)-4,6-dichloro-2-(4-methylpiperazin-1-yl)-2,3-dihydro-1H-inden-1-yl]oxy]benzene)sulfonamido]ethoxy]ethoxy)ethyl]carbamoyl]amino)butyl]urea a; bis(trifluoroacetic acid)]	C (>70%)	–	C (>70%)	–	100 to 1000	–
Cc1cc(S(=O)(=O)NCCOCCOCCNC(=O)NCCCCNC(=O)NCCOCCOCCNS(=O)(=O)c2ccc(O[C@H]3c4cc(Cl)cc(Cl)c4C[C@@H]3N3CCN(C)CC3)c(C)c2)ccc1O[C@H]1c2cc(Cl)cc(Cl)c2C[C@@H]1N1CCN(C)CC1 [Example 73]	B (40-70%)	A (NHE3 pIC50 < 6)	C (>70%)	–	–	100 to 1000
CC(=O)N1CCN([C@H]2Cc3c(Cl)cc(Cl)cc3[C@@H]2Oc2ccc(S(=O)(=O)NCCOCCOCCNC(=O)NCCCCNC(=O)NCCOCCOCCNS(=O)(=O)c3ccc(O[C@H]4c5cc(Cl)cc(Cl)c5C[C@@H]4N4CCN(C(C)=O)CC4)cc3)cc2)CC1 [Example 74, 3-[2-(2-[2-[(4-[[(1S,2S)-2-(4-Acetylpiperazin-1-yl)-4,6-dichloro-2,3-dihydro-1H-inden-1-yl]oxy]benzene)sulfonamido]ethoxy]ethoxy)ethyl]-1-[4-([[2-(2-[2-[(4-[[(1S,2S)-2-(4-acetylpiperazin-1-yl)-4,6-dichloro-2,3-dihydro-1H-inden-1-yl]oxy]benzene)sulfonamido]ethoxy]ethoxy)ethyl]carbamoyl]amino)butyl]urea]	A (NHE3 < 40%)	A (NHE3 pIC50 < 6)	C (>70%)	A (NHE3 pIC50 < 6)	–	–
CC(=O)N1CCN([C@H]2Cc3c(Cl)cc(Cl)cc3[C@@H]2Oc2ccc(S(=O)(=O)NCCOCCOCCNC(=O)NCCCCNC(=O)NCCOCCOCCNS(=O)(=O)c3ccc(O[C@H]4c5cc(Cl)cc(Cl)c5C[C@@H]4N4CCN(C(C)=O)CC4)c(C)c3)cc2C)CC1 [Example 75, 3-[2-(2-[2-[(4-[[(1S,2S)-2-(4-Acetylpiperazin-1-yl)-4,6-dichloro-2,3-dihydro-1H-inden-1-yl]oxy]-3-methylbenzene)sulfonamido]ethoxy]ethoxy)ethyl]-1-[4-([[2-(2-[2-[(4-[[(1S,2S)-2-(4-acetylpiperazin-1-yl)-4,6-dichloro-2,3-dihydro-1H-inden-1-yl]oxy]-3-methylbenzene)sulfonamido]ethoxy]ethoxy)ethyl]carbamoyl]amino)butyl]urea; bis(trifluoroacetic acid)]	A (NHE3 < 40%)	–	B (40-70%)	–	–	100 to 1000
CN(C)C(=O)N1CCN([C@H]2Cc3c(Cl)cc(Cl)cc3[C@@H]2Oc2ccc(S(=O)(=O)NCCOCCOCCNC(=O)NCCCCNC(=O)NCCOCCOCCNS(=O)(=O)c3ccc(O[C@H]4c5cc(Cl)cc(Cl)c5C[C@@H]4N4CCN(C(=O)N(C)C)CC4)cc3)cc2)CC1 [Example 76, 4-[(1S,2S)-4,6-dichloro-1-[4-[(2-[2-[2-([[4-([[2-(2-[2-[4-(4-[[(1S,2S)-4,6-dichloro-2-[4-(dimethylcarbamoyl)piperazin-1-yl]-2,3-dihydro-1H-inden-1-yl]oxy]benzene)sulfonamido]ethoxy]ethoxy)ethyl]carbamoyl]amino)butyl]carbamoyl]amino)ethoxy]ethoxy]ethyl)sulfamoyl]phenoxy]-2,3-dihydro-1H-inden-2-yl]-N,N-dimethylpiperazine-1-carboxamide]	A (NHE3 < 40%)	–	C (>70%)	–	> 1000	< 100
Cc1cc(S(=O)(=O)NCCOCCOCCNC(=O)NCCCCNC(=O)NCCOCCOCCNS(=O)(=O)c2ccc(O[C@H]3c4cc(Cl)cc(Cl)c4C[C@@H]3N3CCN(C(=O)N(C)C)CC3)c(C)c2)ccc1O[C@H]1c2cc(Cl)cc(Cl)c2C[C@@H]1N1CCN(C(=O)N(C)C)CC1 [Example 77, 4-[(1S,2S)-4,6-dichloro-1-[4-[(2-[2-[2-([[4-([[2-(2-[2-[(4-[[(1S,2S)-4,6-dichloro-2-[4-(dimethylcarbamoyl)piperazin-1-yl]-2,3-dihydro-1H-inden-1-yl]oxy]-3-methylbenzene)sulfonamido]ethoxy]ethoxy)ethyl]carbamoyl]amino)butyl]carbamoyl]amino)ethoxy]ethoxy]ethyl)sulfamoyl]-2-methylphenoxy]-2,3-dihydro-1H-inden-2-yl]-N,N-dimethylpiperazine-1-carboxamide; bis(trifluoroacetic acid)]	A (NHE3 < 40%)	A (NHE3 pIC50 < 6)	C (>70%)	A (NHE3 pIC50 < 6)	–	–
Cc1cc(S(=O)(=O)NCCOCCOCCNC(=O)NCCCCNC(=O)NCCOCCOCCNS(=O)(=O)c2cc(C)c(O[C@H]3c4cc(Cl)cc(Cl)c4C[C@@H]3N3CCC[C@@H](N)C3)c(C)c2)cc(C)c1O[C@H]1c2cc(Cl)cc(Cl)c2C[C@@H]1N1CCC[C@@H](N)C1 [Example 79, 3-[2-(2-[2-[(4-[[(1S,2S)-2-[(3R)-3-Aminopiperidin-1-yl]-4,6-dichloro-2,3-dihydro-1H-inden-1-yl]oxy]-3,5-dimethylbenzene)sulfonamido]ethoxy]ethoxy)ethyl]-1-[4-([[2-(2-[2-[(4-[[(1S,2S)-2-[(3R)-3-aminopiperidin-1-yl]-4,6-dichloro-2,3-dihydro-1H-inden-1-yl]oxy]3,5-dimethylbenzene)sulfonamido]ethoxy]ethoxy)ethyl]carbamoyl]amino)butyl]urea; hydrochloride]	C (>70%)	–	C (>70%)	–	100 to 1000	–
Cc1cc(S(=O)(=O)NCCOCCOCCNC(=O)NCCCCNC(=O)NCCOCCOCCNS(=O)(=O)c2cc(C)c(O[C@H]3c4cc(Cl)cc(Cl)c4C[C@@H]3N(C)C)c(C)c2)cc(C)c1O[C@H]1c2cc(Cl)cc(Cl)c2C[C@@H]1N(C)C [Example 80]	B (40-70%)	–	B (40-70%)	–	100 to 1000	100 to 1000
Cc1cc(S(=O)(=O)NCCOCCOCCNC(=O)NCCCCNC(=O)NCCOCCOCCNS(=O)(=O)c2cc(C)c(O[C@H]3c4cc(Cl)cc(Cl)c4C[C@@H]3N3CCC[C@@H](N)C3)cc2C)c(C)cc1O[C@H]1c2cc(Cl)cc(Cl)c2C[C@@H]1N1CCC[C@@H](N)C1 [Example 81, 3-[2-(2-[2-[(4-[[(1S,2S)-2-[(3R)-3-Aminopiperidin-1-yl]-4,6-dichloro-2,3-dihydro-1H-inden-1-yl]oxy]-2,5-dimethylbenzene)sulfonamido]ethoxy]ethoxy)ethyl]-1-[4-([[2-(2-[2-[(4-[[(1S,2S)-2-[(3R)-3-aminopiperidin-1-yl]-4,6-dichloro-2,3-dihydro-1H-inden-1-yl]oxy]-2,5-dimethylbenzene)sulfonamido]ethoxy]ethoxy)ethyl]carbamoyl]amino)butyl]urea]	C (>70%)	–	C (>70%)	C (NHE3 pIC50 > 7)	100 to 1000	–
